Laboratory results taken from ChEMBL document CHEMBL4014293, “Highly oxygenated antiausterity agents from the leaves of Uvaria dac” (2017).
Active and inactive are the calls of the source. The calls are words filed in the database; no cut-off is given here.

What was measured:
MIA PaCa-2 = test: Antiausteritic activity against human MIAPaCa2 cells in nutrient deprived medium after 24 hrs by WST8 assay; format: functional
PSN1 = test: Antiausteritic activity against human PSN1 cells in nutrient deprived medium after 24 hrs by WST8 assay; format: functional
PANC-1 [1] = test: Antiausteritic activity against human PANC1 cells in nutrient deprived medium after 24 hrs by WST8 assay; format: functional
KLM1 = test: Antiausteritic activity human KLM1 cells in nutrient deprived medium after 24 hrs by WST8 assay; format: functional
PANC-1 [2] = test: Antiausteritic activity against human PANC1 cells in nutrient deprived medium assessed as induction of morphological changes at 25 to 50 uM after 24 hrs by ethidium bromide/acridine orange staining based fluorescent/phase contrast microscopic method; format: functional, cell-based
CAPAN-1 = test: Antiausteritic activity against human Capan1 cells in nutrient deprived medium after 24 hrs by WST8 assay; format: functional

Compound | Activity (MIA PaCa-2) | PC50 (MIA PaCa-2) | Activity (PSN1) | PC50 (PSN1) | Activity (PANC-1 [1]) | PC50 (PANC-1 [1]) | Activity (KLM1) | Activity (PANC-1 [2]) | Activity (CAPAN-1) | PC50 (CAPAN-1)
O=C(OCC1=C[C@@H](OC(=O)c2ccccc2)[C@H](O)[C@@H](OC(=O)c2ccccc2)[C@@H]1O)c1ccccc1 | Dose-dependent effect | 29.1 µM | Dose-dependent effect | 9.7 µM | Dose-dependent effect | 20.1 µM | Dose-dependent effect | Active | Dose-dependent effect | 73 µM
CCCCCCCCCCCCCCCCCC(=O)O[C@@H]1C=C(COC(=O)c2ccccc2)[C@@H](O)[C@H](OC(=O)c2ccccc2)[C@H]1O | Dose-dependent effect | – | Dose-dependent effect | – | Dose-dependent effect | – | Dose-dependent effect | – | Dose-dependent effect | –
CCCCCCCCCCCCCCCCCC(=O)O[C@@H]1C=C(COC(=O)c2ccccc2)[C@@H](O)[C@H](O)[C@H]1OC(=O)c1ccccc1 | Dose-dependent effect | – | Dose-dependent effect | – | Dose-dependent effect | – | Dose-dependent effect | – | Dose-dependent effect | –
O=C(OCC1=C[C@@H](OC(=O)c2ccccc2)[C@H](OC(=O)c2ccccc2)[C@@H](O)[C@@H]1O)c1ccccc1 | Dose-dependent effect | – | Dose-dependent effect | – | Dose-dependent effect | – | Dose-dependent effect | – | Dose-dependent effect | –
